In PubChem BioAssay (NCI):
Where “and” joins values, the source holds several entries; their conditions need not be identical. Identical values can stand only once.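 Cultured in 96-well plates, cells were exposed to test compound for 48 hours across five concentrations. GI50 marks 50% less growth. TGI marks complete inhibition of growth.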

Legend:
Test in all cases: NCI tumour cell line growth inhibition, 48 h
KM20L2 colon = tested on: KM20L2 colon
DLD-1 colon = tested on: DLD-1 colon
HOP-18 NSCLC = tested on: HOP-18 NSCLC
SNB-78 CNS = tested on: SNB-78 CNS
DMS 273 small cell lung = tested on: DMS 273 small cell lung
RXF-631 renal = tested on: RXF-631 renal
DMS 114 small cell lung = tested on: DMS 114 small cell lung
XF 498 CNS = tested on: XF 498 CNS
MDA-N = tested on: MDA-N
P388 leukemia = tested on: P388 leukemia
P388/ADR leukemia = tested on: P388/ADR leukemia

Row | SMILES | TGI (KM20L2 colon) | TGI (DLD-1 colon) | TGI (HOP-18 NSCLC) [µM] | TGI (SNB-78 CNS) [µM] | TGI (DMS 273 small cell lung) [µM] | TGI (RXF-631 renal) [µM] | TGI (DMS 114 small cell lung) [µM] | TGI (XF 498 CNS) [µM] | further results
1 | CC(=O)[CH-]C(=O)c1ccccc1.CC(=O)[CH-]C(=O)c1ccccc1.[CH2-]CCC.[CH2-]CCC.[Sn+4] | 3.94 µM | – | – | – | – | – | – | – | GI50 (KM20L2 colon): 1.99 µM
2 | CC1(C)CC(=O)c2c(oc3cc(O)c(O)cc23)C1 | > 100 µM | 53.9 µM | > 100 | > 100 | > 100 | > 100 | 32.5 | – | –
3 | C/C(=N/NC(=O)CC(=O)N(C(=O)c1ccccc1Cl)c1ccc(C)cc1)c1cc2ccccc2oc1=O | > 100 µM | > 100 µM | > 100 | > 100 | > 100 | > 100 | > 100 | > 100 | –
4 | CC1=C(C(=O)CC(=O)C(=O)NC2C3CC4CC(C3)CC2C4)Sc2ccccc2N1 (centres undefined) | > 100 µM | > 100 µM | > 100 | > 100 | > 100 | – | > 31.6 | > 100 | –
5 | COc1cc([C@H]2c3[nH]c4ccccc4c3C[C@H]3COC(=O)N32)cc(OC)c1O | – | > 100 µM | > 100 | > 100 | 44.2 | – | – | 43 | –
6 | O=C(O)C1C(C(=O)O)C2(Cl)C(Cl)=C(Cl)C1(Cl)C2(Cl)Cl.[Cd] (centres undefined) | – | – | – | – | – | – | – | – | GI50 (MDA-N): 8.5 µM; TGI (MDA-N): 22.6 µM
7 | Cc1ccc(/C=C2\CNC/C(=C\c3ccc(C)cc3)C2=O)cc1 | 3.02 µM and 3.14 µM | 1.2 µM and 2.32 µM | – | > 100 | 2.49 | – | 4.98 | 5.16 | GI50 (DLD-1 colon): 0.916 µM; TGI (MDA-N): 3.53 µM
8 | CC[C@@]1(O)C(=O)OCc2c1cc1n(c2=O)Cc2cc3c(N)cccc3nc2-1 | 4.02 µM | > 51.7 µM | 7.64 | > 100 | 0.111 | 1.69 | 0.121 | 1.05 | TGI (P388 leukemia): 0.3 µM; GI50 (MDA-N): 0.333 µM; TGI (MDA-N): > 33.8 µM; TGI (P388/ADR leukemia): 0.375 µM
9 | CCCCCCCCCCCCCCCCS(=O)(=O)c1ccc(NN)cc1 | – | – | – | – | – | – | – | – | TGI (MDA-N): > 10 µM
10 | COc1cc(O)c(C(C)=O)c(O)c1 | – | – | – | – | – | – | – | – | TGI (MDA-N): > 100 µM
11 | O=C(O)Cn1ccnc1[N+](=O)[O-] | – | – | – | – | – | – | – | – | TGI (MDA-N): > 100 µM
12 | COc1ccc2[nH]c3c(=O)[nH]ncc3c2c1 | – | > 100 µM | > 100 | > 100 | > 100 | – | > 100 | – | –
13 | Cc1ccccc1NC(=O)C(=O)CC(=O)c1ccc([N+](=O)[O-])cc1 | > 100 µM | > 100 µM | > 100 | > 100 | > 100 | > 100 | > 100 | > 100 | –
14 | CC(=O)OCCC(O[Si](c1ccccc1)(c1ccccc1)C(C)(C)C)C(C)(C)O (centres undefined) | > 100 µM | – | 91.4 | > 100 | > 100 | > 100 | 53.6 | 96.8 | –
15 | CCOC(=O)C[C@@]12CCCNC1(C)CCc1ccccc12 (some centres undefined) | > 100 µM | > 100 µM | > 100 | – | > 100 | – | > 100 | > 100 | –
16 | COC(=O)C1(F)C(=O)NC(=O)NC1OC (centres undefined) | > 100 µM | > 100 µM | > 100 | > 100 | > 100 | – | > 100 | > 100 | –
17 | CC(C)(C)[Si](C)(C)OCC1OC(n2cnc3c(N)ncnc32)C(O)C1O (centres undefined) | – | – | – | – | – | – | – | – | TGI (MDA-N): > 100 µM
18 | O=C1C(c2ccccc2)=C(c2ccccc2)[C@H](c2ccccc2)[C@]1(Cc1nnn(-c2ccc([N+](=O)[O-])cc2)c1N1CCOCC1)c1ccccc1 | > 37.5 µM | > 37.5 µM | > 37.5 | > 37.5 | > 37.5 | > 37.5 | > 37.5 | 26.5 | –

Row | SMILES | TGI (KM20L2 colon) | TGI (DLD-1 colon) | TGI (HOP-18 NSCLC) [µM] | TGI (SNB-78 CNS) [µM] | TGI (DMS 273 small cell lung) [µM] | TGI (RXF-631 renal) [µM] | TGI (DMS 114 small cell lung) [µM] | TGI (XF 498 CNS) [µM] | further results
19 | CC(C)(C)c1cc(CCC(=O)Nc2ccc(Cl)cc2Cl)nc(N)n1 | > 100 µM | > 100 µM | > 100 | > 100 | – | > 100 | > 100 | – | –
20 | Cc1cc(NC(=O)NC(=O)c2ccccc2N(C)C)ccc1Oc1ncc(Br)cn1 | 0.796 µM | > 100 µM | > 100 | > 100 | – | – | – | – | GI50 (DLD-1 colon): 0.527 µM; GI50 (XF 498 CNS): 0.894 µM; TGI (MDA-N): 0.281 µM; GI50 (DMS 114 small cell lung): 0.478 µM
21 | CCCCCCCCCC(=O)Oc1cccc2onc(C)c12 | > 100 µM | > 100 µM | > 100 | > 100 | > 100 | > 100 | > 100 | – | –
22 | NC(=O)c1c[se]c(C2OC(COP(=O)(O)CP(=O)(O)OCC3OC(n4cnc5c(N)ncnc54)C(O)C3O)C(O)C2O)n1 (centres undefined) | > 100 µM | > 100 µM | > 100 | > 100 | > 100 | – | > 100 | > 100 | –
23 | O=[N+]([O-])C1C2C=CC(C2)[C@H]1c1ccc(Cl)cc1Cl (some centres undefined) | – | > 100 µM | – | > 100 | > 100 | – | – | > 100 | –
24 | O=C(O)[C@@H]1CCCC[C@@H]1C(=O)N(C1CCCCC1)C1CCCCC1 | > 100 µM | > 100 µM | – | > 100 | > 100 | > 100 | > 100 | – | –
25 | CC1(C)OC(COCCOCCCCCO)C(COCCOCCCCCO)O1 (centres undefined) | > 100 µM | > 100 µM | > 100 | > 100 | > 100 | > 100 | > 100 | – | –
26 | CC(C)(CO)N=Cc1ccccc1[O-].CC(C)(CO)N=Cc1ccccc1[O-].[Co+2] | > 100 µM | > 100 µM | > 100 | > 100 | > 100 | – | > 100 | > 100 | GI50 (DLD-1 colon): 26.6 µM; GI50 (XF 498 CNS): > 100 µM; GI50 (HOP-18 NSCLC): 29.4 µM; GI50 (SNB-78 CNS): > 100 µM; GI50 (DMS 273 small cell lung): > 85.9 µM; GI50 (DMS 114 small cell lung): 18.7 µM; GI50 (KM20L2 colon): 61.9 µM
27 | COc1cc2cccc(N=Cc3c(Br)ccc(OC)c3OC(C)C)c2cc1OC | > 100 µM | 82.2 µM | – | > 100 | – | – | 63.5 | > 100 | –
28 | Cc1nnc(N=Nc2c(O)[nH]c3ccccc23)n1N | > 100 µM | > 100 µM | > 100 | > 100 | > 100 | > 100 | > 100 | > 100 | –
29 | NS(=O)(=O)c1ccc(NC(=O)c2cccn3c(=O)c4ccccc4nc23)cc1 | > 100 µM | > 100 µM | > 100 | > 100 | – | > 100 | > 100 | > 100 | –
30 | C[N+](C)=c1nc(N2CCOCC2)ss1 | – | – | – | > 100 | > 100 | – | – | > 100 | –
31 | COC(=O)c1cc2c3c(ccc2[nH]1)N(C(=O)c1cc2c4c(ccc2[nH]1)N(C(=O)c1cc2c5c(ccc2[nH]1)N(C(N)=O)CC5)CC4)CC3 | > 100 µM | > 100 µM | > 100 | > 100 | > 100 | – | 57.3 | – | –
32 | c1ccc(NC[Si]23OCCN(CCO2)CCO3)cc1 | – | > 100 µM | > 100 | > 100 | > 100 | > 100 | > 100 | – | –
33 | COc1nc2c(c(O)c(C)c(=O)n2OC2OC(COC(C)=O)C(OC(C)=O)C(OC(C)=O)C2OC(C)=O)c(=O)n1C (centres undefined) | > 100 µM | > 100 µM | – | > 100 | > 100 | > 100 | > 100 | > 100 | –
34 | COc1ccc(CC2=NCCc3cc(OC)c(OC)cc32)cc1Br | 99.3 µM | > 100 µM | > 100 | > 100 | 33.7 | – | 48.3 | 53.1 | –
35 | C[C@@]12CCCC(=O)N1[C@@H](CO)C(c1ccccc1)O2 (some centres undefined) | > 100 µM | > 100 µM | > 100 | > 100 | > 100 | – | > 100 | > 100 | –
36 | C=CC1=CC(C)C[C@]1(O)C(=O)OC (some centres undefined) | > 100 µM | – | > 100 | > 100 | – | – | – | – | GI50 (DLD-1 colon): > 100 µM; GI50 (XF 498 CNS): > 100 µM; GI50 (DMS 273 small cell lung): > 100 µM; GI50 (RXF-631 renal): > 100 µM; GI50 (DMS 114 small cell lung): > 100 µM
